The target in the experiment is 5-hydroxytryptamine receptor 2C (Homo sapiens) (UniProt P28335). Description: Binding affinity to human 5HT2C receptor.
5-hydroxytryptamine receptor 2C (Homo sapiens), sequence (P28335 whole entry, looked up): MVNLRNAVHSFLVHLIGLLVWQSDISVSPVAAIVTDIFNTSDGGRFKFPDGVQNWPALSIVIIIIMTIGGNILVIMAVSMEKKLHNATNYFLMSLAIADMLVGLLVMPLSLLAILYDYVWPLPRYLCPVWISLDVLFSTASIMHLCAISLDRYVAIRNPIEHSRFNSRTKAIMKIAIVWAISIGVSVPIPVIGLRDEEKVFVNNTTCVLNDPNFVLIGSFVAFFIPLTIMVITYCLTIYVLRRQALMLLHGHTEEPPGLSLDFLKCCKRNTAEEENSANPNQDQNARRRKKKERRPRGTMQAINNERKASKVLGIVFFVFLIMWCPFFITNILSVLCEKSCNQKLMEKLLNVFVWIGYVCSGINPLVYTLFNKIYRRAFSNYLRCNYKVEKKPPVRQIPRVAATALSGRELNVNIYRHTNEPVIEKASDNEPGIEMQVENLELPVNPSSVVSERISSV

By Ki is commonly meant the equilibrium dissociation constant of an inhibitor or competing ligand from its target. A low value points to a stronger hold on the target. Consider `Cc1ccc(Sc2ccccc2N2CCNCC2)c(C)c1.Cl`, for which the affinity, expressed as Ki, was 180 nM.

These data come from ChEMBL document CHEMBL2203036, “Discovery of 1-[2-(2,4-dimethylphenylsulfanyl)phenyl]piperazine (Lu AA21004): a novel multimodal compound for the treatment of major depressive disorder” (J Med Chem, 2011).
